Measured values taken from ChEMBL document CHEMBL3886713, “Aromatic heterocyclic derivative having TRPV4-inhibiting activity” (2016).
pIC50, pKi: −log10 of the molar value.

Target: Transient receptor potential cation channel subfamily V member 4 (Homo sapiens, UniProt Q9HBA0)
Assay: Inhibition Assay: Test Example 1: (1) The TRPV4 inhibitory activity was measured using CHO-K1 cells stably expressing human TRPV4 (hTRPV4/CHO cells). (2) In the day before the experimental day, frozen cell were thawed and washed with the culture medium (MEM-α, 10% FBS, 2 mmol/L GlutaMax, 50 unit Penicillin, 50 μg/mL Streptomycin). Then cells were suspended in the culture medium. (3) The 384-well plates which hTRPV4/CHO cells were seeded at densities of 4000 cells/well in the culture medium and cultured in a CO2 incubator in the presence of 5% CO2 at 37° C. for overnight was used as assay plates. (4) The assay plate was washed with assay buffer (Hanks, 20 mmol/L HEPES, 2.5 mmol/L probenecid, pH7.4), and the buffer were remained at 20 μL/well. (5) 10 μl of dye loading buffer (9 μmol/L Fluo 4-AM, 0.09% Pluronic F-127/assay buffer) was added to each well, then the assay plate was incubated in a CO2 incubator in the presence of 5% CO2 at 37° C. for one hour. (final 3 μmol/L Fluo4-AM). (6) The assay plate was washed with the assay buffer, and the buffers were remained at 20 μL/well. Then the assay plate was incubated for 10 min at room temperature. (7) Diluted compound solution was dispensed to each well in the compound plate, and mixed with built-in Pipette and Mixer of the Fluorescence analysis system FLIPR TETRA (Molecular devices). (8) After incubation for 5 min, 20 μL of 4α-PDD solution were applied to each well of assay plate and mixed with the FLIPR TETRA. (final 1 Î¼mol/L 4α-PDD). (9) The fluorescent intensity was measured with FLIPR TETRA system for 10 min from the point of time addition the compound solution, at Ex 470-495 nm, Em 515-575 nm wavelength.
Format: cell-based

Sequence of Transient receptor potential cation channel subfamily V member 4 (Q9HBA0 whole entry): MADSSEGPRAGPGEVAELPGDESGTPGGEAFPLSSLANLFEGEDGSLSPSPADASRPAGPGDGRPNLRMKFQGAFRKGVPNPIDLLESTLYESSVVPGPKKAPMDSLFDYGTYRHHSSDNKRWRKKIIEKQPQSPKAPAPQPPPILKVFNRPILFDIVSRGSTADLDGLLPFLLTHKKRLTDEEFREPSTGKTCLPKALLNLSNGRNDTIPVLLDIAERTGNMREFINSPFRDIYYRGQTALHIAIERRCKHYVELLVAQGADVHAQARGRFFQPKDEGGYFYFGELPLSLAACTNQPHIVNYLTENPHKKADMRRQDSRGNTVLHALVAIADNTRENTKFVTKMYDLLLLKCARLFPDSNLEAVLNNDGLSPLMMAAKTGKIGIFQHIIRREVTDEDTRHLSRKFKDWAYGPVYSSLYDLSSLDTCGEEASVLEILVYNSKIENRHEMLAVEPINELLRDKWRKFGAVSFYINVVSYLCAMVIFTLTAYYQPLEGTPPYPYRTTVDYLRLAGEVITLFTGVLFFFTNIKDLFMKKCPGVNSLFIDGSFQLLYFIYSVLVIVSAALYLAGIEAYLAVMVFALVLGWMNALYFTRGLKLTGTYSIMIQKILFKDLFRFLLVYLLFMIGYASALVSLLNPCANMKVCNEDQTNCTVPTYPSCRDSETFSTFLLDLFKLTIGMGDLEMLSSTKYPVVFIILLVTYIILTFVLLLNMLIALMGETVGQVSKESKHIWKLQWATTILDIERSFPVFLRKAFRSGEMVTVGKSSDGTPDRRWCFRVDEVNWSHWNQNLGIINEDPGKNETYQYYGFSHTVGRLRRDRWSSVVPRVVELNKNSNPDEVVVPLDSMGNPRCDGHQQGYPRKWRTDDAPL

pIC50 | pKi | SMILES
5.05 | 5.51 | Cc1c(S(=O)(=O)NCc2cccc(C(F)(F)F)c2)cc(C(C)(C)C)n1CCCN1CCNCC1
5.15 | 5.62 | CNCCCn1c(C(C)(C)C)cc(S(=O)(=O)NCc2cccc(C(F)(F)F)c2)c1C

SMILES | pIC50 | pKi
Cc1c(C(=O)Nc2cccc(C(F)(F)F)c2)nc(-c2ccccc2)n1CCCN1CCOCC1 | 6.15 | 6.49
